Patent US10716750B2, “Topical ophthalmic formulations of endothelin receptor antagonists” (Retinset, S.L., priority 2015, dated 2020)
“Also recorded” adds a separate entry of the source.

How the values were obtained:
diabetic mice (db/db) [1] = test: Immunohistochemical evaluation of apoptosis (TUNEL staining of retina sections) after topical ocular treatment; format: in vivo
Description: (§1) In tests 12 male db/db mice aged 10 weeks (Harlan Laboratories, Inc.) were used, and were divided into two groups: 6 of these mice were treated with a formulation of the present invention, and 6 mice with a sodium chloride solution, as described below. 6 non-diabetic (db/+) mice matched by age were also used as the control group.
(§2) On day 15, approximately 1 hour before necropsy, a drop of formulation of the present invention or vehicle was instilled in the eyes of the animals. Following euthanasia, eyes were enucleated. The neuroretina from one of the eyes was extracted, frozen in liquid nitrogen and stored at a temperature of −80° C. The other eye was fixed with a solution of 4% paraformaldehyde, processed routinely, and embedded in paraffin blocks.
Immunohistochemical analysis for apoptosis assessment was carried out TUNEL (Terminal Transferase dUTP Nick-End Labeling) staining using the DeadEnd Fluorometric TUNEL System Kit (Promega, Madison, Wis., USA).
Cryosections of retina were permeabilized by incubation on ice for 2 min with 0.1% Triton X-100 and 0.1% sodium citrate freshly prepared solution. The secondary antibody was Alexa 488 goat anti-rabbit (Invitrogen, San Diego Calif., USA). For evaluation by Laser Scanning Confocal microscopy, the excitation wavelength was 488 nm and detection in the range from 515 to 565 nm, which corresponds to green colour.
The evaluation was carried out in the retina of each animal and a minimum of 10 sections per retina.

diabetic mice (db/db) [2] = test: Determination of glial activation (GFAP staining score, confocal microscopy of retina sections) after topical ocular treatment; format: in vivo
Description: as §1, §2
Glial activation was evaluated by Laser Scanning Confocal microscopy using specific antibodies against GFAP (glial fibrillary acidic protein). Retina sections were fixed in acidic methanol at −20° C. for 2 min, followed by three washes with phosphate buffer (PBS) for 5 min each. Retina sections were permeabilized with a tris buffer (TBS) with 0.025% Triton® X-100 and incubated for 2 hours at room temperature in a blocker solution composed of 1% BSA (serum albumin bovine) and 10% goat serum in 10% PBS. Retina sections were incubated with rabbit anti-GFAP antibody (Abcam Ltd, Cambridge, UK; 1:500 dilution prepared in blocking solution) overnight at 4° C. in a humid atmosphere. After three washes with PBS solution, 5 minutes each, the retina sections were incubated with the secondary antibody Alexa 488 goat anti-rabbit (Invitrogen, San Diego Calif., USA) at a 1:200 dilution prepared in blocking solution. Retina sections were washed three times with PBS, counterstained with Hoechst, mounted with Mounting Medium Fluorescence (Prolong, Invitrogen) and mounted with a coverslip. Comparative digital images from samples were recorded with FluoView FV 1000 Laser Scanning Confocal microscope Olympus using identical settings for brightness and contrast.
A scoring system based on the extent of GFAP staining described in Anderson et al., Glial and endothelial blood-retinal barrier responses to amyloid-β in the neural retina of the rat, Olin. Ophthalmol., 2008, 2, 801-816, was used in order to assess the degree of glial activation. This scoring system was as follows: • Score 1: Müller cell endfeet/ ganglion retinal cell layer (GCL) only; • Score 2: Müller cell endfeet region/GCL plus a few proximal processes; • Score 3: Müller cell endfeet plus many processes, but not extending to the outer nuclear layer (ONL) of the retina; • Score 4: Müller cell endfeet plus processes throughout with some in the ONL; • Score 5: Müller cell endfeet plus lots of dark processes from GCL to outer margin of ONL.
The score was assessed on the retina of each animal and a minimum of 10 sections per retina.

## COc1ccccc1Oc1c(NS(=O)(=O)c2ccc(C(C)(C)C)cc2)nc(-c2ncccn2)nc1OCCO [Bosentan]
Diabetic mice (db/db) [1]; 14 days, twice per day, versus control (db/+) and vehicle-treated diabetic animals
  apoptosis in all retinal layers (in words): reduced apoptosis
Diabetic mice (db/db) [1]; topical ocular, twice daily for 14 days, ganglion cell layer, p <0.001 vs vehicle
  TUNEL staining-positive cell percentage, GCL, mean (standard deviation): 1.42 (0.38) %
Diabetic mice (db/db) [1]; topical ocular, twice daily for 14 days, inner nuclear layer, p <0.001 vs vehicle
  TUNEL staining-positive cell percentage, INL, mean (standard deviation): 0.36 (0.31) %
Diabetic mice (db/db) [1]; topical ocular, twice daily for 14 days, outer nuclear layer, p <0.001 vs vehicle
  TUNEL staining-positive cell percentage, ONL, mean (standard deviation): 0 (0.07) %
Diabetic mice (db/db) [2]; 14 days, twice per day, versus vehicle-treated diabetic animals
  glial activation / reactive gliosis (in words): significant decrease of reactive gliosis; also recorded: less glial activation
Diabetic mice (db/db) [2]; one 5 μl drop of formulation of Example 1 per eye, twice daily for 14 days, Score 1: Müller cell endfeet/GCL only
  degree of glial activation (percentage for each score of GFAP expression), Score 1: 85%
Diabetic mice (db/db) [2]; one 5 μl drop of formulation of Example 1 per eye, twice daily for 14 days, Score 2: endfeet region/GCL plus a few proximal processes
  degree of glial activation (percentage for each score of GFAP expression), Score 2: 15%
Diabetic mice (db/db) [2]; one 5 μl drop of formulation of Example 1 per eye, twice daily for 14 days, Score 3: endfeet plus many processes, not extending to ONL
  degree of glial activation (percentage for each score of GFAP expression), Score 3: 0%
Diabetic mice (db/db) [2]; one 5 μl drop of formulation of Example 1 per eye, twice daily for 14 days, Score 4: endfeet plus processes throughout with some in the ONL
  degree of glial activation (percentage for each score of GFAP expression), Score 4: 0%
Diabetic mice (db/db) [2]; one 5 μl drop of formulation of Example 1 per eye, twice daily for 14 days, Score 5: endfeet plus lots of dark processes from GCL to outer margin of ONL
  degree of glial activation (percentage for each score of GFAP expression), Score 5: 0%
Diabetic mice (db/db) [2]; two weeks of administration
  share with GFAP score less than 2: 85%
Diabetic mice (db/db) [2]; two weeks of administration, all cases, score scale 1-5
  GFAP score of the treated animals: < 3
